Experiments:
Assay type in all cases: cell-based
[1] = molecular target: T1, BRAF V600E (Homo sapiens, UniProt P15056, V600E); assay: BRAF HiBiT degradation assay, C-terminal HiBiT-tagged BRAF V600E A375 cells (clone 1F10), Nano-Glo HiBiT Lytic assay; settings: A375 (BRAF V600E); for DC50: DC50 at 50%: fitted conc. at Y=50; for Dmax: A-375, percentage protein degraded at maximal compound effect relative to DMSO
T1 construct: endogenous C-terminal HiBiT fusion tag on BRAF V600E allele; endogenous in cells; host or cells: A375 clone 1F10 (CRISPR-Cas9 knock-in of the HiBiT tag; parental A375 from ATCC)
In short: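 Using CRISPR-engineered A375 cells that carry a C-terminal HiBiT tag on endogenous BRAF V600E, remaining protein was quantified by lytic luminescence relative to DMSO-treated cells, with wildtype A375 as the background control. DC50 denotes the concentration giving 50% degradation.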

[2] = molecular target: T2, BRAF G466V (Homo sapiens, UniProt P15056, G466V); assay: BRAF HiBiT degradation assay, C-terminal HiBiT-tagged BRAF G466V overexpressed in HCT-116 BRAF−/− cells (clone 8), Nano-Glo HiBiT Lytic assay; settings: BRAF G466V; for DC50: DC50 at 50%: fitted conc. at Y=50; for Dmax: HCT-116, percentage protein degraded at maximal compound effect relative to DMSO
T2 construct: Horizon Discovery (HCT-116 BRAF−/− cells); host or cells: HCT-116 BRAF−/− cells, clone 8, lentiviral transduction
In short: (§1)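 Degradation assay in HCT-116 BRAF−/− cells carrying lentiviral HiBiT-tagged mutant BRAF. The readout is % protein remaining across 1 μM to 0.01 nM compound, and DC50 marks 50% remaining.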

[3] = molecular target: T3, BRAF G469A (Homo sapiens, UniProt P15056, G469A); assay: BRAF HiBiT degradation assay, C-terminal HiBiT-tagged BRAF G469A overexpressed in HCT-116 BRAF−/− cells (clone 34), Nano-Glo HiBiT Lytic assay; settings: Class 2, BRAF G469A; for DC50: DC50 at 50%: fitted conc. at Y=50; for Dmax: HCT-116, percentage protein degraded at maximal compound effect relative to DMSO
T3 construct: Horizon Discovery (HCT-116 BRAF−/− cells); host or cells: HCT-116 BRAF−/− cells, clone 34, lentiviral transduction
In short: as §1

[4] = molecular target: T4, BRAF D594G (Homo sapiens, UniProt P15056, D594G); assay: BRAF HiBiT degradation assay, C-terminal HiBiT-tagged BRAF D594G overexpressed in HCT-116 BRAF−/− cells (clone 63), Nano-Glo HiBiT Lytic assay; settings: BRAF D594G; for DC50: DC50 at 50%: fitted conc. at Y=50; for Dmax: HCT-116, percentage protein degraded at maximal compound effect relative to DMSO
T4 construct: Horizon Discovery (HCT-116 BRAF−/− cells); host or cells: HCT-116 BRAF−/− cells, clone 63, lentiviral transduction
In short: as §1

T2 sequence (P15056 whole entry G466V): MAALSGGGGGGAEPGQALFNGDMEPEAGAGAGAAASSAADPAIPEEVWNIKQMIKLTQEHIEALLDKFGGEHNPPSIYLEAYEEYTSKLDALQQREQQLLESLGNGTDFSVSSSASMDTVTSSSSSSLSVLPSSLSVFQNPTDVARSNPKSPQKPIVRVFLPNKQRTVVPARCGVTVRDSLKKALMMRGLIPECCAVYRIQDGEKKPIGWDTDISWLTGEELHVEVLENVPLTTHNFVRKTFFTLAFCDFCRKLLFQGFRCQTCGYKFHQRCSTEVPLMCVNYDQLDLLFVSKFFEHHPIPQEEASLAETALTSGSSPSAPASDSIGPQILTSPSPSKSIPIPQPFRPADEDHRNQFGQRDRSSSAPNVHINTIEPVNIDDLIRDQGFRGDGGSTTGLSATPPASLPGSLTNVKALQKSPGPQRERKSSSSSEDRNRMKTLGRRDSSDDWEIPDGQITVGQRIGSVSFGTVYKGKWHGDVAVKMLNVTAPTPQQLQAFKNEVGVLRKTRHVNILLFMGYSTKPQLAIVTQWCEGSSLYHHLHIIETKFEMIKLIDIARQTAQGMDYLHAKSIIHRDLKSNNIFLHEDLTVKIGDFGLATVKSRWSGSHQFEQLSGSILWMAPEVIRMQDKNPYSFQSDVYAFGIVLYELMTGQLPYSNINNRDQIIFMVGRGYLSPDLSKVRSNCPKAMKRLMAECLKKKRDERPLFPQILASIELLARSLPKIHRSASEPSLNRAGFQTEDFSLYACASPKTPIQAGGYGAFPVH
T1 sequence (P15056 whole entry V600E, the tested form may be a part): as the sequence (P15056 whole entry G466V) above, with V466G, V600E counted along it
T3 sequence (P15056 whole entry G469A): as the sequence (P15056 whole entry G466V) above, with V466G, G469A counted along it
T4 sequence (P15056 whole entry D594G): as the sequence (P15056 whole entry G466V) above, with V466G, D594G counted along it

| Structure (SMILES) | DC50 [1] [nM] | Dmax [1] [%] | DC50 [2] [nM] | Dmax [2] [%] | DC50 [3] [nM] | Dmax [3] [%] | DC50 [4] [nM] | Dmax [4] [%] |
| --- | --- | --- | --- | --- | --- | --- | --- | --- |
| CCN(C)S(=O)(=O)Nc1cccc(-c2nc(C)sc2-c2ccnc(Nc3ccc(N4CCN(CC5CCN(c6ccc(C7CCC(=O)NC7=O)cn6)CC5)CC4)cn3)n2)c1F (racemic) [Compound 43, Rac-(3S)-3-{6-[4-({4-[6-({4-[4-(3-{[ethyl(methyl)sulfamoyl]amino}-2-fluorophenyl)-2-methyl-1,3-thiazol-5-yl]pyrimidin-2-yl}amino)pyridin-3-yl]piperazin-1-yl}methyl)piperidin-1-yl]pyridin-3-yl}piperidine-2,6-dione] | < 10 | > 70 | 10 to 50 | 30 to 70 | 10 to 50 | 30 to 70 | < 10 | 30 to 70 |
| CCCS(=O)(=O)Nc1cccc(-c2nc(C(C)(C)C)sc2-c2ccnc(Nc3ccc(N4CCN(CC5CCN(c6ccc(C7CCC(=O)NC7=O)cn6)CC5)CC4)c(F)c3)n2)c1F (racemic) [Compound 45, Rac-N-[3-(2-tert-butyl-5-{2-[(4-{4-[(1-{5-[(3R)-2,6-dioxopiperidin-3-yl]pyridin-2-yl}piperidin-4-yl)methyl]piperazin-1-yl}-3-fluorophenyl)amino]pyrimidin-4-yl}-1,3-thiazol-4-yl)-2-fluorophenyl]propane-1-sulfonamide] | 10 to 50 | > 70 | < 10 | > 70 | > 500 | 30 to 70 | 10 to 50 | 30 to 70 |
| CCCS(=O)(=O)Nc1cccc(-c2nc(C(C)(C)C)sc2-c2ccnc(Nc3ccc(N4CCN(CC5CCN(c6ccc(C7CCC(=O)NC7=O)cn6)CC5)CC4)cc3)n2)c1F (racemic) [Compound 47, Rac-N-[3-(2-tert-butyl-5-{2-[(4-{4-[(1-{5-[(3R)-2,6-dioxopiperidin-3-yl]pyridin-2-yl}piperidin-4-yl)methyl]piperazin-1-yl}phenyl)amino]pyrimidin-4-yl}-1,3-thiazol-4-yl)-2-fluorophenyl]propane-1-sulfonamide] | < 10 | > 70 | < 10 | > 70 | > 500 | 30 to 70 | 10 to 50 | 30 to 70 |
| CCCS(=O)(=O)Nc1cccc(-c2nc(C(C)(C)C)sc2-c2ccnc(Nc3ccc(N4CCN(C(=O)[C@@H]5CCN(c6ccc([C@H]7CCC(=O)NC7=O)cn6)C5)CC4)c(F)c3)n2)c1F (racemic) [Compound 49, Rac-N-(3-(2-(tert-butyl)-5-(2-((4-(4-((R)-1-(5-((R)-2,6-dioxopiperidin-3-yl)pyridin-2-yl)pyrrolidine-3-carbonyl)piperazin-1-yl)-3-fluorophenyl)amino)pyrimidin-4-yl)thiazol-4-yl)-2-fluorophenyl)propane-1-sulfonamide] | < 10 | > 70 | > 500 | 30 to 70 | > 500 | 30 to 70 | > 500 | 30 to 70 |
| CCCS(=O)(=O)Nc1cccc(-c2nc(C(C)(C)C)sc2-c2ccnc(Nc3ccc(N4CCN(C(=O)CN5CCc6cc(C7CCC(=O)NC7=O)ccc6C5)CC4)c(F)c3)n2)c1F (racemic) [Compound 51, Rac-N-(3-{2-tert-butyl-5-[2-({4-[4-(2-{6-[(3R)-2,6-dioxopiperidin-3-yl]-1,2,3,4-tetrahydroisoquinolin-2-yl}acetyl)piperazin-1-yl]-3-fluorophenyl}amino)pyrimidin-4-yl]-1,3-thiazol-4-yl}-2-fluorophenyl)propane-1-sulfonamide] | < 10 | > 70 | 50 to 500 | 30 to 70 | > 500 | 30 to 70 | 50 to 500 | 30 to 70 |
| CCCS(=O)(=O)Nc1cccc(-c2nc(C(C)(C)C)sc2-c2ccnc(Nc3ccc(N4CCN(C(=O)CC5(O)CCN(c6ccc(NC7CCC(=O)NC7=O)cc6F)CC5)CC4)c(F)c3)n2)c1F (racemic) [Compound 52, Rac-N-{3-[2-tert-butyl-5-(2-{[4-(4-{2-[1-(4-{[(3R)-2,6-dioxopiperidin-3-yl]amino}-2-fluorophenyl)-4-hydroxypiperidin-4-yl]acetyl}piperazin-1-yl)-3-fluorophenyl]amino}pyrimidin-4-yl)-1,3-thiazol-4-yl]-2-fluorophenyl}propane-1-sulfonamide] | < 10 | > 70 | > 500 | < 30 | > 500 | < 30 | > 500 | < 30 |
| CCN(C)S(=O)(=O)Nc1cccc(-c2nc(C(C)(C)C)sc2-c2ccnc(Nc3ccc(N4CCN(C(=O)C5CCN(c6ccc(C7CCC(=O)NC7=O)cn6)CC5)CC4)cn3)n2)c1F (racemic) [Compound 56, Rac-(3R)-3-[6-(4-{4-[6-({4-[2-tert-butyl-4-(3-{[ethyl(methyl)sulfamoyl]amino}-2-fluorophenyl)-1,3-thiazol-5-yl]pyrimidin-2-yl}amino)pyridin-3-yl]piperazine-1-carbonyl}piperidin-1-yl)pyridin-3-yl]piperidine-2,6-dione] | < 10 | > 70 | < 10 | 30 to 70 | 10 to 50 | 30 to 70 | < 10 | 30 to 70 |

Next, values leading:

| DC50 [1] [nM] | Dmax [1] [%] | DC50 [2] [nM] | Dmax [2] [%] | DC50 [3] [nM] | Dmax [3] [%] | DC50 [4] [nM] | Dmax [4] [%] | Structure (SMILES) |
| --- | --- | --- | --- | --- | --- | --- | --- | --- |
| < 10 | > 70 | > 500 | < 30 | > 500 | < 30 | > 500 | < 30 | CCCS(=O)(=O)Nc1cccc(-c2nc(C)sc2-c2ccnc(Nc3ccc(C4CCN(C(=O)CC5CCN(c6ccc(NC7CCC(=O)NC7=O)cc6)CC5)CC4)cc3)n2)c1F (racemic) [Compound 44, Rac-N-{3-[5-(2-{[4-(1-{2-[1-(4-{[(3R)-2,6-dioxopiperidin-3-yl]amino}phenyl)piperidin-4-yl]acetyl}piperidin-4-yl)phenyl]amino}pyrimidin-4-yl)-2-methyl-1,3-thiazol-4-yl]-2-fluorophenyl}propane-1-sulfonamide] |
| < 10 | > 70 | < 10 | 30 to 70 | > 500 | 30 to 70 | 50 to 500 | 30 to 70 | CCCS(=O)(=O)Nc1cccc(-c2nc(C(C)(C)C)sc2-c2ccnc(Nc3ccc(N4CCN(C(=O)CC5CCN(c6ccc(NC7CCC(=O)NC7=O)cc6)CC5)CC4)c(F)c3)n2)c1F (racemic) [Compound 46, Rac-N-{3-[2-tert-butyl-5-(2-{[4-(4-{2-[1-(4-{[(3R)-2,6-dioxopiperidin-3-yl]amino}phenyl)piperidin-4-yl]acetyl}piperazin-1-yl)-3-fluorophenyl]amino}pyrimidin-4-yl)-1,3-thiazol-4-yl]-2-fluorophenyl}propane-1-sulfonamide] |
| < 10 | > 70 | > 500 | < 30 | > 500 | < 30 | > 500 | 30 to 70 | CCCS(=O)(=O)Nc1cccc(-c2nc(C(C)(C)C)sc2-c2ccnc(Nc3ccc(N4CCN(C(=O)CC5CCN(c6ccc(C7CCC(=O)NC7=O)cn6)CC5)CC4)c(F)c3)n2)c1F (racemic) [Compound 48, Rac-N-[3-(2-tert-butyl-5-{2-[(4-{4-[2-(1-{5-[(3R)-2,6-dioxopiperidin-3-yl]pyridin-2-yl}piperidin-4-yl)acetyl]piperazin-1-yl}-3-fluorophenyl)amino]pyrimidin-4-yl}-1,3-thiazol-4-yl)-2-fluorophenyl]propane-1-sulfonamide] |
| < 10 | > 70 | > 500 | 30 to 70 | > 500 | 30 to 70 | > 500 | 30 to 70 | CCCS(=O)(=O)Nc1cccc(-c2nc(C(C)(C)C)sc2-c2ccnc(Nc3ccc(N4CCN(C(=O)C5CCN(c6ccc(C7CCC(=O)NC7=O)cn6)CC5)CC4)c(F)c3)n2)c1F (racemic) [Compound 57, Rac-N-(3-{2-tert-butyl-5-[2-({4-[4-(1-{5-[(3R)-2,6-dioxopiperidin-3-yl]pyridin-2-yl}piperidine-4-carbonyl)piperazin-1-yl]-3-fluorophenyl}amino)pyrimidin-4-yl]-1,3-thiazol-4-yl}-2-fluorophenyl)propane-1-sulfonamide] |

— patent publication US20260317324A1, “BIFUNCTIONAL COMPOUNDS FOR DEGRADING BRAF VIA UBIQUITIN PROTEOSOME PATHWAY” (Nurix Therapeutics, Inc., priority 2023, published 2026)
